Reference: BindingDB's records for doi:10.1007/bf02246453 (University of Turku, 1996)
Counter-ions that a name gives are not always drawn.

Legend:
[1] = molecular target: T1, 5-hydroxytryptamine receptor 2C (Rattus norvegicus, UniProt P08909)
T1 sequence (P08909 whole entry): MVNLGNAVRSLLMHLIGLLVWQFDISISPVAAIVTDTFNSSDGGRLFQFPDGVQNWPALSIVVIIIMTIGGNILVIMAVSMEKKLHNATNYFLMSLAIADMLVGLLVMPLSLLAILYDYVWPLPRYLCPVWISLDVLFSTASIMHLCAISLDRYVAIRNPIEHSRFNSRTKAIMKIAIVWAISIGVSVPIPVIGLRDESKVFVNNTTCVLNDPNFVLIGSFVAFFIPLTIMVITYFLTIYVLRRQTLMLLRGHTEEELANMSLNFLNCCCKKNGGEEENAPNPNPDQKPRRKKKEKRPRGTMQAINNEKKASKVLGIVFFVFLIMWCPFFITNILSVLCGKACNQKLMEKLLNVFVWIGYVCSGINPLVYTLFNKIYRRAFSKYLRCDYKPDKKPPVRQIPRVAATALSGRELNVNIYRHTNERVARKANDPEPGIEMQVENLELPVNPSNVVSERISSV

[2] = molecular target: 5-hydroxytryptamine receptor 2A (Rattus norvegicus, UniProt P14842)
5-hydroxytryptamine receptor 2A, sequence (P14842 whole entry): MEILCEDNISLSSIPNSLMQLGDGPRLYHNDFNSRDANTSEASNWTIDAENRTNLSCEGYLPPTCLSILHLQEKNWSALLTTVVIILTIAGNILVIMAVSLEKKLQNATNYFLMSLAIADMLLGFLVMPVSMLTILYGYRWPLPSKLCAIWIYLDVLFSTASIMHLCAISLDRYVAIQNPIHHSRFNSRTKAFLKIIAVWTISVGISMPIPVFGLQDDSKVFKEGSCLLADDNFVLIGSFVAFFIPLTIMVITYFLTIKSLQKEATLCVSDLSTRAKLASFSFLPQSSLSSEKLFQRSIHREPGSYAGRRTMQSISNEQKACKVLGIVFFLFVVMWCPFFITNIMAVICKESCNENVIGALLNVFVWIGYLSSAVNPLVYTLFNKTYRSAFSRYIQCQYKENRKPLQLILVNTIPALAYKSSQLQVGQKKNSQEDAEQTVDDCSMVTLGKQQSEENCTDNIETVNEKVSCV

SMILES | Ki [1] [nM] | Ki [2] [nM]
CN(C)CCC=C1c2ccccc2CCc2ccccc21 | 4.3 | 4.3
O=c1n(CCCN2CCN(c3cccc(Cl)c3)CC2)nc2ccccn12 [2-{3-[4-(3-chlorophenyl)piperazin-1-yl]propyl}[1,2,4]triazolo[4,3-a]pyridin-3(2H)-one] | 193 | –
CN(C)CCCn1c2c(c3ccccc31)CCCCCC2 [CAS_5560-72-5] | 206 | –
CNCCCN1c2ccccc2CCc2ccccc21 [Desmethylimipramine] | 244 | –
C#CCN(C)CCCOc1ccc(Cl)cc1Cl [US8633208, Clorgyline] | 1000 | –

Further lines, with some results ahead:

Ki [1] [nM] | SMILES | Ki [2] [nM]
94 | CN(C)CCCN1c2ccccc2CCc2ccccc21 | –
269 | CN(C)CCCC1(c2ccc(F)cc2)OCc2cc(C#N)ccc21 (stereo unspecified) [CITALOPRAM HYDROBROMIDE] | –
157 | NCC[C@H](Oc1ccc(C(F)(F)F)cc1)c1ccccc1 [NORFLUOXETINE] | –
8.5 | CNCCC=C1c2ccccc2CCc2ccccc21 [NORTRIPTYLINE] | –
1000 | CN(C)C/C=C(/c1ccc(Br)cc1)c1cccnc1 [cis-[3-(4-Bromo-phenyl)-3-pyridin-3-yl-allyl]-dimethyl-amine;HCl] | –
